Measurements reported in patent publication US20250382631A1, “PROTAC-CID SYSTEMS FOR USE IN MULTIPLEX GENE REGULATION” (William Marsh Rice University, priority 2022, published 2025).

What was measured:
[1] = tested on: Cre-mediated GFP expression in HEK293T cells; test: Inducible Cre site-specific DNA recombination, LoxP-STOP-LoxP-GFP reporter; format: cell-based, human
Method: Fluorescence assay using flow cytometry analysis. Cells were treated with 0.05% Trpsin EDTA (Thermo Fisher Scientific no. 25300054) or TrypLE (Thermo Fisher Scientific no. 12605028) after transfection and centrifuged at 3000 g for 5 min. Supernatant was removed and the cell pellet was resuspended with 200 μL phosphate buffered saline (PBS) without calcium and magnesium (Thermo Fisher Scientific no. 10010023). Cells were transferred into 12×75 mm flow tubes (Global Scientific no. 110410). Cells were analyzed by MA900 flow cytometry (SONY). 405 nm laser (FL6 filter) was used for testing the BFP channel. 488 nm (FL1 filter) was used for testing the EYFP and GFP channel. Automated alignment using Automatic Setup Beads kit (SONY no. LE-B3001) is performed before running samples. In FIGS. 3A, 3B, and 17, experiments were performed under 2% FSC, 17% BSC, 24% FL1. In FIG. 18, experiments were performed under 2% FSC, 17% BSC, 27% FL1. All the other experiments were performed under 2% FSC, 17% BSC, 24% FL1 and 27% FL6. Flow cytometry data was processed and analyzed by FlowJo 10. Events were first gated with forward scatter-Area (FSC-A) and side scatter-Area (SSC-A) to select viable cells and remove the debris and dead cells. Cells were further gated with FSC-A and FSC-Height (FSC-H) for selecting single cells. The mean intensity of the reporter fluorescent protein (BFP and EYFP) in viable and single cell populations were calculated by FlowJo 10 as the mean of FL6-A and FL1-A. When calculating the fold change of relative fluorescence units (RFU), the relative fluorescence units of EYFP was calculated by dividing the mean of fluorescence intensity of EYFP with the mean of BFP fluorescence intensity for normalization as the following formula: […]
Transfection and microscopy. […]

[2] = tested on: pUAS-2-driven Fluc in HEK293T cells co-infected with Virus a and Virus b; test: AAV infection of HEK293T cells, luciferase bioluminescence; format: cell-based, human; settings: 100 nM MZ1, three days post-infection, FIG. 4B
Method: AAV infection on HEK293T cells. Before infection, HEK293T cells were seeded into 96 well plates (Corning no. 3610). When the confluency reaching 50%, 1 μL of each purified AAV virus (Virus a and Virus b in FIGS. 4 and 19) were added into the supernatant of HEK293T cells. 100 nM of MZ1 or DMSO was added into the supernatant. Three days post-infection, cells with 80 μL medium were treated with 40 μL lysis buffer (500 mM DTT, 10 mM coenzyme A, 100 mM ATP, 80 mg/mL D-luciferin, Triton lysis buffer (0.1082 M Tris-HCl, 0.0419 M Tris-Base, 75 mM NaCl, 3 mM MgCl2)). To lysis the cells Plate was shaken by plate reader Infinite M200 (TECAN) with 20 seconds in “Orbital” mode with frequency of 432 rpm and Amplitude of 1 mm. Relative light units of luminescence was recorded by plate reader Infinite M200 (TECAN) with 1000 ms integration time using Megellan v1.7 (TECAN).

SMILES | GFP signal, two-layer genetic circuit driving Cre ([1]; 100 nM dTAG-13 or 1 μM dBRD9, 2 days, FIGS. 3A and 17) | GFP expression, three-layer circuit (Dre, Rox-STOP-Rox-Cre) ([1]; FIG. 3B) | increase in luciferase bioluminescence intensity [2]
CC[C@H](C(=O)N1CCCC[C@H]1C(=O)O[C@H](CCc1ccc(OC)c(OC)c1)c1ccccc1OCC(=O)NCCCCCCOc1cccc2c1C(=O)N(C1CCC(=O)NC1=O)C2=O)c1cc(OC)c(OC)c(OC)c1 (stereo partly drawn) [dTAG-13] | strong GFP signal | robust GFP expression only in the presence of dTAG-13 | –
Cc1ncsc1-c1ccc(CNC(=O)[C@@H]2C[C@@H](O)CN2C(=O)[C@@H](NC(=O)COCCOCCOCCNC(=O)C[C@@H]2N=C(c3ccc(Cl)cc3)c3c(sc(C)c3C)-n3c(C)nnc32)C(C)(C)C)cc1 [MZ1] | – | – | more than 60 fold
